“Also recorded” adds a separate entry of the source.
Key:
[1] = test system: apomorphine induced stereotypic behavior; assay: Antidopamine action, apomorphine induced stereotypic behavior; type: in vivo, rat; details: for Apomorphine Induced Stereotypic Behavior, sum of scores: maximum of 24; for Antidopamine action: peroral, apomorphine 0.5 mg/kg s.c.
Description: Seven-week old male S.D. line rats were administered a test drug perorally and after the passage of 30 min, the dopamine agonist apomorphine was injected subcutaneously in an amount of 0.5 mg/kg. For the subsequent 5-30 min period, the intensity of stereotypic behavior that was induced in the rats by apomorphine was measured six times at 5-min intervals by a scoring method and the sum of the scores was determined (for a maximum of 24).

[2] = molecular target: T1, serotonin 1A receptor (Rattus norvegicus, UniProt P19327); assay: Serotonin 1A receptor binding experiment (3H-8-OH-DPAT); details: rat cortex and hippocampal tissue; 0.5 nM 3H-8-OH-DPAT; IC50 in M; read-out: -logIC50 5-HT1A (converted)
T1 construct: the cortex and hippocampal tissue were extracted from the brain; from tissue; host or cells: brain cortex and hippocampus of 7-week-old male S.D. rats, washed membrane homogenate
T1 sequence (P19327 1-422): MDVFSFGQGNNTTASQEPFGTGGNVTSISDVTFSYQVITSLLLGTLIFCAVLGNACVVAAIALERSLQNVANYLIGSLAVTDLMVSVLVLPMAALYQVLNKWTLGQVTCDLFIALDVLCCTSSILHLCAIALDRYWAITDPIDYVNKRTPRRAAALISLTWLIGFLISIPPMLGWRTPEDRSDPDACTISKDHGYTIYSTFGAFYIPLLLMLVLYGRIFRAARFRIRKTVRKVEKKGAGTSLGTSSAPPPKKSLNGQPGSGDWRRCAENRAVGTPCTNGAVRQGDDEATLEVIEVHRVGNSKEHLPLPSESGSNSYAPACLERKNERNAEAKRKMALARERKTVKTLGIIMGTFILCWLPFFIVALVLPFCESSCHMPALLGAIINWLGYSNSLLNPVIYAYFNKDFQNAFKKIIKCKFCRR
Description: (§1) Affinity for intracerebral serotonin 1A and serotonin 2 receptor was checked in accordance with the method of Hall et al. (J. Neurochem., 44, 1685-1695, 1985) and the method of Leysen et al. (Mol. Pharmacol., 21, 301-314, 1982).
(§2) Stated more specifically, the cortex and hippocampal tissue were extracted from the brain of 7-wk old S.D. line male rats, mixed with 20 volumes of Tris-HCl buffer (50 mM, pH 7.7) and homogenized with a Teflon homogenizer. Thereafter, the homogenate was centrifuged at 39800×g for 20 min and the supernatant was discarded. Forty volumes of a buffer were added to the precipitate and the mixture was homogenized with a Polytron homogenizer, with the homogenate being centrifuged under the same condition as set forth above. The same procedure was repeated two more times and the final precipitate was homogenized with 40 volumes of a buffer; thereafter, the homogenate was stored at least overnight at -80° C. On the day when binding experiments were to be conducted, the homogenate was thawed at room temperature and incubated at 37° C. for 20 min to remove the endogenous serotonin.
(§3) Thereafter, centrifugation was conducted at 39800×g for 20 min and 40 volumes of a buffer were added to the precipitate, followed by homogenization. This procedure was repeated three times; to the final precipitate, a buffer was added in 65 volumes for the case of serotonin 1A receptor and in 80 volumes for the case of serotonin 2 receptor and the mixture was homogenized in preparation for the binding experiments that are described below. All procedures of experimentation except storage in a frozen state and thawing at room temperature were conducted at 4° C. or below.
A reaction solution containing 0.5 nM (final concentration) of 3H-8-hydroxy-2-(di-n-propylamino)tetralin (8-OH-DPAT), […] and 500 μl of brain homogenate in 1.0 ml (final volume) of a buffer was incubated at 25° C. for 30 min. Thereafter, the reaction solution was filtered by rapid passage through a glass filler. The filter was washed rapidly with an ice-cooled buffer (3 ml) three times, put into a scintillation vial together with a scintillation cocktail, and left to stand overnight at 4° C. On the next day, the vial was agitated well and measurements were conducted with a scintillation counter. To determine the amount of specific binding, the amount of binding in the presence of excess unlabeled serotonin (10 μM) was subtracted from the total amount of binding. As an index for the affinity of a test compound for either receptor, the concentration at which the specific binding of ^3 H-DPAT was inhibited by 50% (IC50, M) was determined using computer software EBDA/LIGAND (Biosoft).

[3] = test system: S.D. line male rats; assay: Sedative action, amount of spontaneous movement (Animex); type: in vivo, rat; details: for Amount of Spontaneous Movement: control 405.2 ± 47.7; for Sedative action / spontaneous movement: peroral 20-60 mg/kg
Description: Seven-week old male S.D. line rats were administered a test drug perorally and after the passage of 30 min, the amount of spontaneous movement of the rats was measured for 10 min by means of Animex.

[4] = test system: S.D. line male rats; assay: Antidepressant effect, compelled swim test (Porsolt), time over which rats remain motionless; type: in vivo, rat; parameters: Antidepressant effect / Antidepressant effect, longevity: scale not given here; details: for inhibition in vivo at 20 mg/kg / ED50: Rattus norvegicus, po, 0.5 h; for inhibition in vivo at 20 mg/kg: 30 min before swim, read-out: Antidepressant effect, Efficacy; for ED50: peroral, probit method, read-out: ED50, dose reducing motionless time by one half vs control
Description: An antidepression test was conducted in accordance with the method of Porsolt et al. (Europ. J. Pharmacol., 47, 379-391, 1978). Stated more specifically, 7-wk old S.D. line male rats were placed in a glass cylinder (18 cm^.phi. ×40 cm^H) for 15 min. The cylinder was filled with water (25° C.) to a depth of 15 cm. Thereafter, the rats were placed in a hot environment (32° C.) for 15 min before they were returned to the cage. Twenty-four hours later, the rats were compelled again to swim in the same cylinder for 5 min and the total time over which the rats remained motionless was measured. A test drug was administered perorally to each animal 30 min before it was compelled to swim for 5 min. Antidepressant agents are known to be capable of specifically reducing the time over which the rats would remain motionless (Psyehopharmaeol., 83, 1-16, 1984, and ibid., 94, 147-160, 1988). The antidepressant effect was calculated by the following formula: [formula]
The procedure of Test Examples 2 and 3 were repeated except that test compounds were administered perorally in a dose of 10 mg/kg.
The procedures of Test Example 2 and 3 were repeated, except that test compounds were administered perorally in a dose of 20 mg/kg to check the longevity of their antianxiety and antidepressant effects for 0.5, 2 and 4 h.

[5] = molecular target: T2, serotonin 2 receptor (Rattus norvegicus, UniProt P14842); assay: Serotonin 2 receptor binding experiment (3H-ketancerine); details: rat cortex and hippocampal tissue; 0.5 nM 3H-ketancerine; IC50 in M; read-out: -logIC50 5-HT2 (converted)
T2 construct: the cortex and hippocampal tissue were extracted from the brain; from tissue; host or cells: brain cortex and hippocampus of 7-week-old male S.D. rats, washed membrane homogenate
T2 sequence (P14842 whole entry): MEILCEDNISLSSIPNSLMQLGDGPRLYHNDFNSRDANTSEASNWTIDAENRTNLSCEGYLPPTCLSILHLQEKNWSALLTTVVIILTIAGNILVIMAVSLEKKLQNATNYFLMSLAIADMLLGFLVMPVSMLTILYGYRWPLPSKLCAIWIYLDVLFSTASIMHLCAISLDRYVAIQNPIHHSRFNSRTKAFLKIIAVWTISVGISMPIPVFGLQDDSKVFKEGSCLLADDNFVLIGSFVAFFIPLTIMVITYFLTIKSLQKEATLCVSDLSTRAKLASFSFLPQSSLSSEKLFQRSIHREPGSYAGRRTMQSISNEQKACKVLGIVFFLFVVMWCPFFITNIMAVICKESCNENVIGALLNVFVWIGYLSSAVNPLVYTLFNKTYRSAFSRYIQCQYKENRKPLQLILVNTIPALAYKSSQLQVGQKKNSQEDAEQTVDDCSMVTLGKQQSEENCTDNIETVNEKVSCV
Description: as §1, §2, §3
A reaction solution containing 0.5 nM (final concentration) of ^3 H-ketancerine and 500 μl of brain homogenate in 1.0 ml (final volume) of a buffer was incubated at 30° C. for 30 min. Subsequent procedures were the same as in the serotonin 1A receptor binding experiment and IC50 (M) was determined accordingly. To determine the amount of specific binding, the amount of binding in the presence of excess unlabelled methysergide ([…]) was subtracted from the total amount of binding.

[6] = 20 mg/kg peroral, control 14.4 ± 0.9 (Comp. 1: 16.0 ± 1.1)
[7] = peroral 20 mg/kg, 0.5 h after administration
[8] = peroral 20 mg/kg, 2.0 h after administration
[9] = peroral 20 mg/kg, 4.0 h after administration

| SMILES | Apomorphine Induced Stereotypic Behavior, sum of scores [1, 6] | Antidopamine action [1] | IC50 [2] [nM] | Amount of Spontaneous Movement ([3]; 20 mg/kg peroral) [Counts/10 min] | Amount of Spontaneous Movement ([3]; 40 mg/kg peroral) [Counts/10 min] | Amount of Spontaneous Movement ([3]; 60 mg/kg peroral) [Counts/10 min] | Sedative action / spontaneous movement [3] | inhibition in vivo at 20 mg/kg ([4]; peroral 20 mg/kg) [%] | ED50 [4] [mg/kg] | Antidepressant effect ([4]; peroral 10 mg/kg) | Antidepressant effect ([4]; peroral 20 mg/kg) | Antidepressant effect, longevity [4, 7] | Antidepressant effect, longevity [4, 8] | Antidepressant effect, longevity [4, 9] | Antidepressant activity relative to WY-50324 (ED50) ([4]; ratio of ED50) | IC50 [5] [nM] | Apomorphine Induced Stereotypic Behavior, sum of scores ([1]; 10 mg/kg peroral, control 14.4 ± 0.9) | Apomorphine Induced Stereotypic Behavior, sum of scores ([1]; 40 mg/kg peroral, control 14.4 ± 0.9) |
| --- | --- | --- | --- | --- | --- | --- | --- | --- | --- | --- | --- | --- | --- | --- | --- | --- | --- | --- |
| Cc1cccc2c1OC(CNCCNC(=O)C13CC4CC(CC(C4)C1)C3)CO2 (stereo not shown) [Compound 1, N-{[2-(8-methyl-1,4-benzodioxan-2-ylmethyl)amino]ethyl}tricyclo[3,3,1,1^3, ^7]decane-1-carboxyamide] | 14.7 | no effect at all when it was used in a dose of 20 mg/kg; also recorded: no antidopamine action | 1.17 | 442.0 | 401.8 | 319.4 | no appreciable sedative action | 72 ± 5.5 | 8.1 | 66.7 ± 12.6 | better antidepressant effects than WY-50324 | 71.8 | 73.9 | 40.7 | three times the activity of WY-50324 | 30.2 | – | – |
| O=C(NCCN1CCN(c2ncccn2)CC1)C12CC3CC(CC(C3)C1)C2 [WY-50324, reference compound] | 12.1 | showed an inhibitory action in high doses | 1.26 | 315.5 | 361.9 | 401.6 | no appreciable sedative action | 58.1 ± 5 | 24.3 | – | – | 56.7 | 17.3 | 0.7 | – | 200 | 14.7 | 10.9 |
